Test results taken from ChEMBL document CHEMBL4304785, “Recent advances of analogues of curcumin for treatment of cancer” (Eur J Med Chem, 2019).
pIC50: −log10 of the molar value. Values belong to the compound of their own block, whether it stands above or below them.

Assays:
ASPC1 = experiment: Antitumor activity against human Aspc-1 cells xenografted in athymic nude mouse assessed as reduction in tumor volume at 5 mg/kg after 35 days relative to control; type: functional; conditions: ASPC1, 840 h
MCF7 [1] = experiment: Anti-invasive activity against human MCF7 cells at 100 umol/L after 12 hrs by giemsa staining based light microscopic analysis relative to control; type: functional
K562 = experiment: Induction of apoptosis in human K562; type: functional, cell-based
Tubulin = experiment: Inhibition of tubulin polymerization (unknown origin); type: protein-complex assay, Homo sapiens
TT = experiment: Cytotoxicity against human TT cells by trypan blue dye-based assay; type: functional, cell-based
[2] = biological target: Fibroblast growth factor receptor 1 (Homo sapiens) (UniProt P11362); experiment: Inhibition of FGFR1 (unknown origin) relative to control; conditions: concentration not given here
[3] = biological target: Fibroblast growth factor receptor 2 (Homo sapiens) (UniProt P21802); experiment: Inhibition of FGFR2 (unknown origin) relative to control; conditions: concentration not given here
A-431 = experiment: Cytotoxicity against human A431 cells after 72 hrs by MTT assay; type: functional, cell-based; conditions: A-431, 72 h
[4] = Cytotoxicity against human BCC cells after 72 hrs by MTT assay; type: functional, cell-based
SCC-25 = experiment: Cytotoxicity against human SCC25 cells after 72 hrs by MTT assay; type: functional, cell-based; conditions: SCC-25, 72 h
A-375 = experiment: Cytotoxicity against human A375 cells after 72 hrs by MTT assay; type: functional, cell-based; conditions: A-375, 72 h
[5] = Cytotoxicity against […] cells after 72 hrs by MTT assay; type: functional, cell-based; conditions: B16, 72 h
[6] = Cytotoxicity against human WRO cells at 10 uM after 72 hrs by MTS assay relative to control; type: functional
[7] = Cytotoxicity against human WRO cells after 72 hrs in presence of curcumin by MTS assay relative to control; type: functional
MCF7R = experiment: Cytotoxicity against human MCF7/R cells at 5 umol/L after 72 hrs by MTS assay relative to control; type: functional
[8] = Cytotoxicity against human WRO cells at 5 umol/L after 72 hrs by MTS assay relative to control; type: functional
SGC-7901 = experiment: Antiproliferative activity against human SGC7901 cells by MTT assay; type: functional, cell-based
U-251 = experiment: Antiproliferative activity against human U251 cells by MTT assay; type: functional, cell-based
NCI-H460 = experiment: Antiproliferative activity against human H460 cells by MTT assay; type: functional, cell-based
L02 = experiment: Antiproliferative activity against human HL7702 cells by MTT assay; type: functional, cell-based
Caco-2 = experiment: Cytotoxicity against human Caco2 cells by MTT/SRB assay; type: functional, cell-based
HT-29 [9] = experiment: Cytotoxicity against human HT-29 cells by MTT/SRB assay; type: functional, cell-based
HepG2 = experiment: Cytotoxicity against human HepG2 cells by MTT/SRB assay; type: functional, cell-based
CHO-K1 = experiment: Cytotoxicity against CHOK1 cells by MTT/SRB assay; type: functional, cell-based; conditions: Cricetulus griseus
SK-OV-3 [10] = experiment: Induction of apoptosis in human SKOV3 cells at 20 umol/L after 48 hrs by annexin-V-FITC/propidium iodide staining-based flow cytometric method relative to control; type: functional
SK-OV-3 [11] = experiment: Induction of apoptosis in human SKOV3 cells at 40 umol/L after 48 hrs by annexin-V-FITC/propidium iodide staining-based flow cytometric method relative to control; type: functional
SK-OV-3 [12] = experiment: Induction of apoptosis in human SKOV3 cells at 80 umol/L after 48 hrs by annexin-V-FITC/propidium iodide staining-based flow cytometric method relative to control; type: functional
MDA-MB-231 = experiment: Increase in MMP3 level in human MDA-MB-231 cells after 24 hrs by ELISA; type: functional, cell-based; conditions: MDA-MB-231, 24 h
HT-1080 = experiment: Decrease in UPA expression in human HT1080 cells; type: functional, cell-based
EL4 = experiment: Induction of apoptosis in mouse EL4 cells at 50 umol/L after 72 hrs relative to control; type: functional
HeLa = experiment: Cytotoxicity against human HeLa cells; type: functional, cell-based
MCF7 [13] = experiment: Cytotoxicity against human MCF7 cells; type: functional, cell-based
[14] = Cytotoxicity against […] cells by MTT assay; type: functional, cell-based
HT-29 [15] = experiment: Cytotoxicity against human HT-29 cells after 4 hrs by MTT assay; type: functional, cell-based; conditions: HT-29, 4 h
SW480 = experiment: Cytotoxicity against human SW480 cells after 4 hrs by MTT assay; type: functional, cell-based; conditions: SW480, 4 h
KM12 = experiment: Cytotoxicity against human KM12 cells after 4 hrs by MTT assay; type: functional, cell-based; conditions: KM12, 4 h
[16] = Cytotoxicity against human SW116 cells after 4 hrs by MTT assay; type: functional, cell-based; conditions: SW116, 4 h
WiDr = experiment: Cytotoxicity against human WiDr cells after 4 hrs by MTT assay; type: functional, cell-based
Colon 26 = experiment: Cytotoxicity against mouse Colon 26 cells after 4 hrs by MTT assay; type: functional, cell-based; conditions: Colon 26, 4 h
DLD-1 = experiment: Cytotoxicity against human DLD1 cells; type: functional, cell-based
HT-29 [17] = experiment: Cytotoxicity against human HT-29 cells; type: functional, cell-based
CCD-841CoN = experiment: Cytotoxicity against human CRL1790 cells; type: functional, cell-based
HaCaT = experiment: Cytotoxicity against human HaCaT cells; type: functional, cell-based
BT-474 = experiment: Cytotoxicity against human BT474 cells; type: functional, cell-based
T47D = experiment: Cytotoxicity against human T47D cells; type: functional, cell-based
Hep 3B2 = experiment: Cytotoxicity against human Hep3B cells; type: functional, cell-based
[18] = Cytotoxicity against human HPL1D cells; type: functional, cell-based

Sequence of Fibroblast growth factor receptor 1 (Homo sapiens) (P11362 22-822 limits assumed): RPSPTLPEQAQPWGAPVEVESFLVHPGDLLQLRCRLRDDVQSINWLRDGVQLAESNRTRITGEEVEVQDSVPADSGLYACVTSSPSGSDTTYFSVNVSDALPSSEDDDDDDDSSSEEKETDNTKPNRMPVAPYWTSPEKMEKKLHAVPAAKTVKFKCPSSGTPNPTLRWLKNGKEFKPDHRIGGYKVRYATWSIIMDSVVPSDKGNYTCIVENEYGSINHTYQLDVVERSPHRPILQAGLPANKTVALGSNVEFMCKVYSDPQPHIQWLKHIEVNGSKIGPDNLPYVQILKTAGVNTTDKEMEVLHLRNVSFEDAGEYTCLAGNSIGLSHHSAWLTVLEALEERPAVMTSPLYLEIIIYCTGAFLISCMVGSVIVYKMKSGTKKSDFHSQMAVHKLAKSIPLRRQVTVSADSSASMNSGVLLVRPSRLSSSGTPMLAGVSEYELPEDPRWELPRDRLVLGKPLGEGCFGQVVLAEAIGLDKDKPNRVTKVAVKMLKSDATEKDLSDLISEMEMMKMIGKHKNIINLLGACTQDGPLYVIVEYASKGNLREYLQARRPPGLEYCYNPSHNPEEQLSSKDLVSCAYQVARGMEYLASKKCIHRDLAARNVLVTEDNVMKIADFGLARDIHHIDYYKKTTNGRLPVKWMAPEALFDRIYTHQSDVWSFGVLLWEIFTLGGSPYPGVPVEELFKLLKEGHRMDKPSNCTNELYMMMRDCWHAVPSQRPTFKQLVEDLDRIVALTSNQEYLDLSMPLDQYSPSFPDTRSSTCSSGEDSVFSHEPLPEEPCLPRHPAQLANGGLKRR
Sequence of Fibroblast growth factor receptor 2 (Homo sapiens) (P21802 22-821 limits assumed): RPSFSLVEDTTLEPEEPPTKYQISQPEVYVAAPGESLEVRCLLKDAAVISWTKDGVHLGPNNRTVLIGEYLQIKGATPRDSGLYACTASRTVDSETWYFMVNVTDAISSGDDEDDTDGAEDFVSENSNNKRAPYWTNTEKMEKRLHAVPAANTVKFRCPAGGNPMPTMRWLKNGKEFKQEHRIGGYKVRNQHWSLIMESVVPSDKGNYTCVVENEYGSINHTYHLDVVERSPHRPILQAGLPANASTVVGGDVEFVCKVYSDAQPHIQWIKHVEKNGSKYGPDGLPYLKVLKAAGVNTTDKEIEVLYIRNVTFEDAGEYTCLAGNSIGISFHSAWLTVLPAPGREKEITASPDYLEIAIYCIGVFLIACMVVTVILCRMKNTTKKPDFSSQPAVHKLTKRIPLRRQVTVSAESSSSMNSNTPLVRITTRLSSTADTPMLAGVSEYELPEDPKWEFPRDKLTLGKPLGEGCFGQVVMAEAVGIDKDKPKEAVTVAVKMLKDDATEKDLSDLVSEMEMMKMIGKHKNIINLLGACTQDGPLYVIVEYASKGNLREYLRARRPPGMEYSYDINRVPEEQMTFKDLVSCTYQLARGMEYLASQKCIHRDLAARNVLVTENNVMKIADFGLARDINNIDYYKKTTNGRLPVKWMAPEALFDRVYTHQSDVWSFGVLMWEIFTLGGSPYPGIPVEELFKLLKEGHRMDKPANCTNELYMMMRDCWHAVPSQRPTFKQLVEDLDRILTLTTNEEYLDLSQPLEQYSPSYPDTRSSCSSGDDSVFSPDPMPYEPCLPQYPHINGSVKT

pIC50 (K562): 5.37 | pIC50 (Tubulin): 3.21
Structure (SMILES): O=C(/C=C/c1ccccc1)c1ccccc1 [CHALCONE]

inhibition [2]: 92% | inhibition [3]: 64%
Structure (SMILES): COc1cc(/C=C/C(=O)O)ccc1O [FERULATE]
pIC50 (TT): 3.82

pIC50 (SGC-7901): 5.19 | pIC50 (U-251): 5.35 | pIC50 (NCI-H460): 5.22
Structure (SMILES): O=C1/C(=C/c2ccccc2F)CNC/C1=C\c1ccccc1F
pIC50 (L02): 5.24

pIC50 (MDA-MB-231): 5.05 | pIC50 (HT-1080): 5.12
Structure (SMILES): COc1cc(/C=C/C(=O)CC(=O)/C=C/c2ccc(O)cc2)ccc1O
Activity (SK-OV-3 [10]): 35.1% | Activity (SK-OV-3 [11]): 51.5% | Activity (SK-OV-3 [12]): 70.7%

pIC50 (HT-1080): 5.00
Structure (SMILES): COc1cc(/C=C/C(=O)CC(=O)/C=C/c2ccc(O)c(OC)c2)ccc1O [CURCUMIN]
Activity (EL4): 95% | pIC50 (HeLa): 5.09 | pIC50 (MCF7 [13]): 4.70 | pIC50 [14]: 5.07 | pIC50 (HT-29 [15]): 4.68 | pIC50 (SW480): 4.75 | pIC50 (KM12): 4.80 | pIC50 [16]: 4.56 | pIC50 (WiDr): 4.57 | pIC50 (Colon 26): 4.52 | pIC50 (DLD-1): 3.84 | pIC50 (HT-29 [17]): 3.88 | pIC50 (CCD-841CoN): 3.98 | pIC50 (HaCaT): 4.89 | pIC50 (BT-474): 4.96 | pIC50 (T47D): 4.96 | pIC50 (Hep 3B2): 5.00 | pIC50 [18]: 4.80

Second part, the compound before the results:

Structure (SMILES): COc1cc(CNC(=O)CCCC/C=C/C(C)C)ccc1O [CAPSAICIN]
inhibition in vivo at 5 mg/kg (ASPC1): 73%

Structure (SMILES): O=C(CC(=O)c1ccccc1)c1ccccc1 [DIBENZOYLMETHANE]
Activity (MCF7 [1]): 84%

Structure (SMILES): COc1cc(CCC(=O)CCCCc2ccccc2)ccc1O
pIC50 (A-431): 4.88 | pIC50 [4]: 4.95 | pIC50 (SCC-25): 4.73 | pIC50 (A-375): 4.62 | pIC50 [5]: 4.40

Structure (SMILES): COc1cc(/C=C/c2cc(/C=C/c3ccc(O)c(OC)c3)[nH]n2)ccc1O [CURCUMIN PYRAZOLE]
inhibition at 10 µM [6]: 48.2% | inhibition (INH) [7]: 41% | inhibition at 5 µM (MCF7R): 52.8% | inhibition at 5 µM [8]: 48.9%

Structure (SMILES): O=C(/C=C(O)/C=C/c1c[nH]c2ccccc12)/C=C/c1c[nH]c2ccccc12
pIC50 (Caco-2): 4.92 to 5.48 | pIC50 (HT-29 [9]): 4.92 to 5.48 | pIC50 (HepG2): 4.92 to 5.48 | pIC50 (CHO-K1): 4.92 to 5.48
